Patent publication US12240811B2, “N-heterocyclic five-membered ring-containing capsid protein assembly inhibitor, pharmaceutical composition and uses thereof” (CHIA TAI TIANQING PHARMACEUTICAL GROUP CO., LTD., priority 2019, dated 2025)

What was measured:
[1] = Plasma protein binding assay, dog plasma; format: in vitro ADME
Experimental: (§1) Formulation of plasma sample: 495 μL of blank plasmas of the corresponding species (mouse, rat, dog, monkey, and human) were drawn respectively, and thereto was added 5 μL of the corresponding test compound solution or positive control to give plasma sample solutions having a plasma drug concentration of the compound of 1 μM, and 10 μM, respectively (formulated with acetonitrile).
(§2) The pre-treated dialysis membrane was placed in a high-throughput equilibrium dialysis device, and 100 μL of the plasma sample solution and PBS buffer solution were drawn and added respectively to both sides of the dialysis membrane (sample side and buffer side) (n=3). After the equilibration device was sealed with a film, it was incubated at 37° C. overnight (100 rpm). After dialysis equilibrium was reached, 50 μL samples were drawn from the sample side and the buffer side, respectively, and the reaction was terminated by adding ice acetonitrile containing an internal standard.
(§3) Sample pre-treatment: To 50 μL of the plasma-side sample was added 450 μL of ice acetonitrile containing an internal standard, and then precipitated. After vortexing for 5 minutes, the sample was centrifugated (12000 rpm, 4° C.) for 10 minutes. 75 μL of the supernatant was pipetted, and 75 μL of ultrapure water was added thereto for dilution and mixed uniformly. 1 μL of the resulting solution was injected for analysis. […]

[2] = Plasma protein binding assay, human plasma; format: in vitro ADME
Experimental: as §1, §2, §3

CYP1A2 = CYP1A2 (Homo sapiens (Human), UniProt P05177); test: CYP450 enzyme inhibition study, CYP1A2; format: in vitro ADME
Sequence of CYP1A2 (P05177 whole entry): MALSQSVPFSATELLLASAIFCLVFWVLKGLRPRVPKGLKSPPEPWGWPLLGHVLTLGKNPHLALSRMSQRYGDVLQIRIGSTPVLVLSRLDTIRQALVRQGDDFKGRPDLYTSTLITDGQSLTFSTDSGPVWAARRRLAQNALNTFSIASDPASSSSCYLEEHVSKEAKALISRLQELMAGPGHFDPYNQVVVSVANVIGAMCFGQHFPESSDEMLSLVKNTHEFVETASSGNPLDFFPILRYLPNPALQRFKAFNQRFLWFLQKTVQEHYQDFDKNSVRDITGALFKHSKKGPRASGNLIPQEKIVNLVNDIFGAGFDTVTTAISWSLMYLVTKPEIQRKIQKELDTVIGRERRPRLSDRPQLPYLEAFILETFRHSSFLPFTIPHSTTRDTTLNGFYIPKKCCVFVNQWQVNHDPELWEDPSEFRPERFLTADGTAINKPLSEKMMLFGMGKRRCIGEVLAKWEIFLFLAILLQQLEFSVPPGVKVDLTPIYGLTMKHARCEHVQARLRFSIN
Experimental: (§4) 500 μL of a final incubation system contains 50 μL of human liver microsomes (protein concentration: 0.2 mg/mL, Corning), 1 μL of mixed CYP450 specific substrates (CYP1A2, CYP 2B6, CYP 2C9, CYP2C19, CYP 2D6, and CYP 3A4), 398 μL PBS buffer (pH7.4), 1 μL specific positive inhibitor (positive control group) or the test compound (formulated with acetonitrile), and 50 μL NADPH+MgCl2. Duplicate incubation systems of 0.5 mL each were formulated for each CYP450 subtype. A total volume of 450 μL of a uniformly mixed solution of the substrate and the enzyme was formulated in each tube, and the solution and NADPH were pre-incubated at 37° C. for 5 minutes, respectively. Then 50 μL of the mixed solution of NADPH+MgCl2 was added for reaction. 50 μL of the reaction solution was taken out at 30 minutes, and the reaction was terminated with 300 μL of ice acetonitrile containing an internal standard. In addition, two control groups of 500 μL each without NADPH were prepared in parallel as a negative control group.
(§5) Sample pre-treatment: To 50 μL of the incubated sample was added 300 μL of ice acetonitrile containing an internal standard, and then precipitated. After vortexing for 5 minutes, the sample was centrifugated (12000 rpm, 4° C.) for 10 minutes. 75 μL of the supernatant was pipetted, and 75 μL of ultrapure water was added thereto for dilution and mixed uniformly. […]

HBV DNA in HepAD38 cells = test: In vitro cell HBV DNA inhibitory activity in HepAD38 cells; format: cell-based; conditions: Hepatitis B virus, 144 h, 6 days treatment, intracellular capsid HBV DNA by qPCR, read-out: EC50, anti-HBV activity in HepAD38 cells
Experimental: A bottle of HepG2.2.15 (Wuhan Institute of Virology) or HepAD38 cells in good exponential growth state was taken, washed once by adding 5 mL PBS, and then thereto was added 3 mL trypsin. After digesting at room temperature for 5 min, 2 mL trypsin was discarded, and then the sample was placed in a cell culture incubator and digested for 10 min. The cells were taken out and observed under a microscope (whether the cells were individually round and there was no adhesion between the cells). 10 mL complete medium was added to terminate the digestion. After pipetting into a single cell suspension, 10 μL of the cell suspension was taken out for cell counting with a cell counter, and then diluted with a complete medium and adjusted to a cell density of 1*10^5 cells/mL. […]
Compounds dissolved in DMSO were subjected to two-fold gradient dilution (10 concentrations in total) with complete medium. […] After lysing at room temperature for 10 min, DNA was extracted, and HBV DNA in the intracellular viral capsid was measured by real-time fluorescence quantitative PCR. The inhibition rate was calculated based on the Ct value, and the EC50 value was calculated by the four-parameter method.

[3] = Stability of liver microsomes in vitro, human; format: in vitro ADME
Experimental: 300 μL of a final incubation system contains 30 μL of liver microsomes (protein concentration: 0.15 mg/mL, Corning), 30 μL NADPH+MgCl2, 3 μL substrate (formulated with acetonitrile), and 237 μL PBS buffer. Duplicate incubation systems of 0.3 mL each were formulated for each species. A total volume of 270 μL of a uniformly mixed solution of the substrate and the enzyme was formulated in each tube, the solution and NADPH were pre-incubated at 37° C. for 5 minutes, respectively. Then 30 μL of the mixed solution of NADPH+MgCl2 was added for reaction. 50 μL of the reaction solution was taken out at 0, 10, 30, and 60 mins, and the reaction was terminated with 300 μL of ice acetonitrile containing an internal standard.
Sample pre-treatment: To 50 μL of the incubated sample was added 300 μL of ice acetonitrile containing diazepam as an internal standard and then precipitated. After vortexing for 5 minutes, the sample was centrifugated (12000 rpm, 4° C.) for 10 minutes. 75 μL of the supernatant was pipetted into a 96-well plate, and then diluted with 75 μL ultrapure water and mixed uniformly. 0.5 μL of the resulting solution was injected and analyzed by LC-MS/MS.

[4] = Plasma protein binding assay, monkey plasma; format: in vitro ADME
Experimental: as §1, §2, §3

CYP 2B6 = CYP 2B6 (Homo sapiens (Human), UniProt P20813); test: CYP450 enzyme inhibition study, CYP 2B6; format: in vitro ADME; conditions: human liver microsomes; read-out: Subtypes IC50 2B6
Sequence of CYP 2B6 (P20813 whole entry): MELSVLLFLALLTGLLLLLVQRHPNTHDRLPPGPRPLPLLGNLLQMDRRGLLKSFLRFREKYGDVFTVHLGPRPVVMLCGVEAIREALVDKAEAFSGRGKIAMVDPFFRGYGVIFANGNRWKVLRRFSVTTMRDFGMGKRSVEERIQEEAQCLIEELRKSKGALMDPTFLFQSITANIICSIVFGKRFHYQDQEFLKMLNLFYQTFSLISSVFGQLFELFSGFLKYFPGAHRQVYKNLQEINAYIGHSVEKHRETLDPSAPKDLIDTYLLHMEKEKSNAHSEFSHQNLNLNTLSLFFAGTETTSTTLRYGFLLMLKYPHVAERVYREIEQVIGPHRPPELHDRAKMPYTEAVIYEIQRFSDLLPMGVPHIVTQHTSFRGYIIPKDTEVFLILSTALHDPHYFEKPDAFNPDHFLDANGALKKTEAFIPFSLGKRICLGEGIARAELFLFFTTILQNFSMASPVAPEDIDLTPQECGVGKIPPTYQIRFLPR
Experimental: as §4, §5

[5] = Plasma protein binding assay, rat plasma; format: in vitro ADME
Experimental: as §1, §2, §3

## Cc1[nH]c(C(=O)C(=O)N[C@@H](C)C(F)(F)F)c(C)c1C(=O)Nc1ccc(F)c(C#N)c1 [Example 1, (S)—N-(3-cyano-4-fluorophenyl)-2,4-dimethyl-5-(2-oxo-2-((1,1,1-trifluoroprop-2-yl)amino)acetyl)-1H-pyrrole-3-carboxamide]
[1]; 1 μM
  Binding rate (%) Dog: 94.0%
[1]; 10 μM
  Binding rate (%) Dog: 93.9%
[2]; 1 μM
  Binding rate (%) Human: 97.3%
[2]; 10 μM
  Binding rate (%) Human: 97.3%
CYP1A2
  IC50: 49 µM
HBV DNA in HepAD38 cells
  EC50: 0.024 µM
[3]
  Remaining (%) of human liver microsomes at 60 min: 99%
[4]; 1 μM
  Binding rate (%) Monkey: 90.2%
[4]; 10 μM
  Binding rate (%) Monkey: 90.5%
CYP 2B6
  IC50: > 200 µM
[5]; 1 μM
  Binding rate (%) Rat: 95.0%
[5]; 10 μM
  Binding rate (%) Rat: 95.3%
